Experimental data published in the RepoRT retention time repository.
Counter-ions that a name gives are not always drawn.

Assay: RP, Waters CORTECS UPLC C18, 100 × 2.1 mm, 1.6 µm, 40 °C, 0.4 mL/min, estimated dead time 0.55 min; A: water + 0.1% formic acid, pH 3; B: acetonitrile + 0.1% formic acid, pH 3; gradient (min/%B) 0/5 1.12/5 6.41/99.5 10.01/99.5
Details: stereoisomer not certain

SMILES	LC retention time [min]
CC1=C(C(=O)Nc2ccccc2)SCCO1 [Carboxin]	4.3
CCOC(=O)C(Cl)Cc1cc(-n2nc(C)n(C(F)F)c2=O)c(F)cc1Cl (stereo unspecified) [Carfentrazone-ethyl]	5.39
CC(CCC(=O)O)C1CCC2C3C(O)CC4CC(O)CCC4(C)C3CCC12C (stereo unspecified) [Chenodeoxycholic acid]	5.12
CNC(=O)c1cc(Cl)cc(C)c1NC(=O)c1cc(Br)nn1-c1ncccc1Cl [Chlorantraniliprole]	4.63
Nc1cnn(-c2ccccc2)c(=O)c1Cl [Chloridazon]	3.17
Cc1ccc(NC(=O)N(C)C)cc1Cl [Chlorotoluron]	4.15
CN(C)C(=O)Nc1ccc(Oc2ccc(Cl)cc2)cc1 [Chloroxuron]	4.84
COP(=S)(OC)Oc1nc(Cl)c(Cl)cc1Cl [Chlorpyriphos-methyl]	5.73
COc1nc(C)nc(NC(=O)NS(=O)(=O)c2ccccc2Cl)n1 [Chlorsulfurson]	4.12
Clc1ccccc1-c1nnc(-c2ccccc2Cl)nn1 [Clofentezine]	5.65
CC1(C)CON(Cc2ccccc2Cl)C1=O [Clomazone]	4.64
CCOP(=S)(OCC)Oc1ccc2c(C)c(Cl)c(=O)oc2c1 [Coumaphos]	5.6
Cc1ccc(-c2c(Cl)nc(C#N)n2S(=O)(=O)N(C)C)cc1 [Cyazofamid]	5.39
CN(C)C(=O)NC1CCCCCCC1 [Cycluron]	4.22
Cc1ccc(N=c2sccn2C)c(C)c1 [Cymiazol hydrochloride]	3.22
CC(C1CC1)C(O)(Cn1cncn1)c1ccc(Cl)cc1 (stereo unspecified) [Cyproconazole]	4.78
Cc1cc(C2CC2)nc(Nc2ccccc2)n1 [Cyprodinil]	4.68
CC(=O)OCC(=O)C1CCC2C3CCC4=CC(=O)CCC4(C)C3CCC12C (stereo unspecified) [DEOXYCORTICOSTERONE ACETATE]	5.2
Nc1nc2c(ncn2C2CC(O)C(CO)O2)c(=O)[nH]1 (stereo unspecified) [DEOXYGUANOSINE]	0.751
CC1NC(=O)NC1CCCCCC(=O)O (stereo unspecified) [DETHIOBIOTIN]	2.9
CCCCCCCCCC(=O)OC(CC(=O)[O-])C[N+](C)(C)C [Decanoyl-L-carnitine]	4.21
CCN(CC)C(=O)c1cccc(C)c1 [Deet]	4.37

SMILES	LC retention time [min]
CC(CCC(=O)O)C1CCC2C3C(=O)CC4CC(=O)CCC4(C)C3CC(=O)C12C (stereo unspecified) [Dehydrocholic acid]	4.13
CC(CCC(=O)O)C1CCC2C3CCC4CC(O)CCC4(C)C3CC(O)C12C (stereo unspecified) [Deoxycholic acid]	5.22
CC(C)=CCCC(C)C1CCC2C3CC=C4CC(O)CCC4(C)C3CCC12C (stereo unspecified) [Desmosterol]	6.81
CCOP(=S)(OCC)Oc1cc(C)nc(C(C)C)n1 [Diazinon]	5.73
COP(=O)(OC)OC=C(Cl)Cl [Dichlorvos]	3.89
CCOc1ccc(NC(=O)OC(C)C)cc1OCC [Diethofencarb]	4.83
CC1COC(Cn2cncn2)(c2ccc(Oc3ccc(Cl)cc3)cc2Cl)O1 (stereo unspecified) [Difenoconazole]	5.46
O=C(NC(=O)c1c(F)cccc1F)Nc1ccc(Cl)cc1 [Diflubenzuron]	5.11
CC12CCC(O)CC1CCC1C2CC(O)C2(C)C(C3=CC(=O)OC3)CCC12O (stereo unspecified) [Digoxigenin]	2.45
COCCN(C(=O)CCl)c1c(C)cccc1C [Dimethachlor]	4.55
CNC(=O)CSP(=S)(OC)OC [Dimethoate]	3.27
CNC(=O)C(=NOC)c1ccccc1COc1cc(C)ccc1C [Dimoxystrobin]	5.25
CC(C)(C)C(O)C(=Cc1ccc(Cl)cc1Cl)n1cncn1 (stereo unspecified) [Diniconazole]	5.27
CNC(=N[N+](=O)[O-])NCC1CCOC1 (stereo unspecified) [Dinotefuran]	2.2
CC1CCC2(OC1)OC1CC3C4CC=C5CC(O)CCC5(C)C4CCC3(C)C1C2C (stereo unspecified) [Diosgenin]	7.3
CCOP(=S)(OCC)Oc1nc(Cl)c(Cl)cc1Cl [Dursban]	6.17
CCOC(=O)Cc1c[nH]c2ccccc12 [ETHYL 3-INDOLEACETATE]	4.49
Fc1ccc(C2(Cn3cncn3)OC2c2ccccc2Cl)cc1 (stereo unspecified) [Epoxiconazol]	4.94
CCOP(=S)(OCC)SCSP(=S)(OCC)OCC [Ethion]	6.19
CCCCc1c(C)nc(NCC)[nH]c1=O [Ethirimol]	3.01
CCOC1Oc2ccc(OS(C)(=O)=O)cc2C1(C)C (stereo unspecified) [Ethofumesate]	5.04
CCCSP(=O)(OCC)SCCC [Ethoprop]	5.02

SMILES	LC retention time [min]
Cc1cc2nc3c(=O)[nH]c(=O)nc-3n(CC(O)C(O)C(O)COP(=O)(O)OP(=O)(O)OCC3OC(n4cnc5c(N)ncnc54)C(O)C3O)c2cc1C (stereo unspecified) [FAD]	2.34
Nc1nc2ncc(CNc3ccc(C(=O)NC(CCC(=O)O)C(=O)O)cc3)nc2c(=O)[nH]1 (stereo unspecified) [FOLATE]	2.38
CSC1=NC(C)(c2ccccc2)C(=O)N1Nc1ccccc1 (stereo unspecified) [Fenamidone]	4.96
CCOP(=O)(NC(C)C)Oc1ccc(SC)c(C)c1 (stereo unspecified) [Fenamiphos]	4.89
OC(c1ccc(Cl)cc1)(c1cncnc1)c1ccccc1Cl (stereo unspecified) [Fenarimol]	4.86
N#CC(CCc1ccc(Cl)cc1)(Cn1cncn1)c1ccccc1 (stereo unspecified) [Fenbucanozole]	5.11
CC1(C(=O)Nc2ccc(O)c(Cl)c2Cl)CCCCC1 [Fenhexamid]	5
CCOC(=O)NCCOc1ccc(Oc2ccccc2)cc1 [Fenoxycarb]	5.19
CC(Cc1ccc(C(C)(C)C)cc1)CN1CCCCC1 (stereo unspecified) [Fenpropidine]	4.27
Cc1nn(C)c(Oc2ccccc2)c1C=NOCc1ccc(C(=O)OC(C)(C)C)cc1 [Fenpyroximate]	6.25
CN(C)C(=O)Nc1ccccc1 [Fenuron]	3.14
N#CCNC(=O)c1cnccc1C(F)(F)F [Flonicamid]	2.88
O=[N+]([O-])c1cc(C(F)(F)F)c(Cl)c([N+](=O)[O-])c1Nc1ncc(C(F)(F)F)cc1Cl [Fluazinam]	5.97
Cc1cc(C(F)(C(F)(F)F)C(F)(F)F)ccc1NC(=O)c1cccc(I)c1C(=O)NC(C)(C)CS(C)(=O)=O [Flubendiamide]	5.35
CC(C)N(C(=O)COc1nnc(C(F)(F)F)s1)c1ccc(F)cc1 [Flufenacet]	5.22
O=C(NC(=O)c1c(F)cccc1F)Nc1ccc(Oc2ccc(C(F)(F)F)cc2Cl)cc1F [Flufenoxuron]	6.08
Cc1ccn2nc(S(=O)(=O)Nc3c(F)cccc3F)nc2n1 [Flumetsulam]	3.43
C#CCN1C(=O)COc2cc(F)c(N3C(=O)C4=C(CCCC4)C3=O)cc21 [Flumioxazin]	4.77
CN(C)C(=O)Nc1cccc(C(F)(F)F)c1 [Fluometuron]	4.2
O=C(NCc1ncc(C(F)(F)F)cc1Cl)c1c(Cl)cccc1Cl [Fluopicolide]	5.06
CON=C(C1=NOCCO1)c1ccccc1Oc1ncnc(Oc2ccccc2Cl)c1F [Fluoxastrobin]	5.22
O=c1c2cc(F)ccc2nc(-n2cncn2)n1-c1ccc(Cl)cc1Cl [Fluquinconazole]	5.01

SMILES	LC retention time [min]
C[Si](Cn1cncn1)(c1ccc(F)cc1)c1ccc(F)cc1 [Flusilazole]	5.06
OC(Cn1cncn1)(c1ccc(F)cc1)c1ccccc1F (stereo unspecified) [Flutriafol]	4.2
O=C(Nc1ccccc1)Nc1ccnc(Cl)c1 [Forchlorfenuron]	4.19
CCOP(=O)(SC(C)CC)N1CCSC1=O (stereo unspecified) [Fosthiazate]	4.22
c1coc(-c2nc3ccccc3[nH]2)c1 [Fuberidazole]	2.63
COC(=O)C(C)N(C(=O)c1ccco1)c1c(C)cccc1C (stereo unspecified) [Furalaxyl]	4.79
CCCCOC(=O)N(C)SN(C)C(=O)Oc1cccc2c1OC(C)(C)C2 [Furathiocarb]	6.05
Nc1nc2nc[nH]c2c(=O)[nH]1 [GUANINE]	0.76
Nc1nc2c(ncn2C2OC(CO)C(O)C2O)c(=O)[nH]1 (stereo unspecified) [GUANOSINE]	0.76
O=C(O)c1cc(O)c(O)c(O)c1 [Gallic acid]	0.886
CC(CCC(=O)NCC(=O)O)C1CCC2C3C(O)CC4CC(O)CCC4(C)C3CC(O)C12C (stereo unspecified) [Glycocholic acid hydrate]	4.08
CC(CCC(=O)NCC(=O)O)C1CCC2C3CCC4CC(O)CCC4(C)C3CC(O)C12C (stereo unspecified) [Glycodeoxycholic acid]	4.66
CC(CCC(=O)NCC(=O)O)C1CCC2C3CC(O)C4CC(O)CCC4(C)C3CCC12C (stereo unspecified) [Glycohyodeoxycholic acid]	4.08
CC(CCC(=O)NCC(=O)O)C1CCC2C3CCC4CC(O)CCC4(C)C3CCC12C (stereo unspecified) [Glycolithocholic acid]	5.25
CC(C)(C)N(NC(=O)c1ccc(Cl)cc1)C(=O)c1ccccc1 [Halofenozide]	4.84
CCCCC(O)(Cn1cncn1)c1ccc(Cl)cc1Cl (stereo unspecified) [Hexaconazole]	5.17
O=C(NC(=O)c1c(F)cccc1F)Nc1cc(Cl)c(OC(F)(F)C(F)F)c(Cl)c1 [Hexaflumuron]	5.61
CCCCCC(=O)OC(CC(=O)[O-])C[N+](C)(C)C [Hexanoyl-L-carnitine]	3.05
CC1C(c2ccc(Cl)cc2)SC(=O)N1C(=O)NC1CCCCC1 (stereo unspecified) [Hexythiazox]	6.21
O=C(O)CNC(=O)c1ccccc1 [Hippuric acid]	2.6
